Source: patent US9459250B2, “Use of T1R3 venus flytrap region polypeptide to screen for taste modulators” (SENOMYX, INC., priority 2003, dated 2016)
“Also recorded” adds a separate entry of the source. Like-named read-outs stand apart in the source and are kept apart here. Where a SMILES comes first, the peptide text is derived from it.

Legend:
human sweet receptor = human sweet receptor (Homo sapiens (Human), UniProt Q7RTX0+Q8TE23); test: Dose responses of human sweet receptor with lactisole; type: cell-based; details: read-out: EC50 of sweetener
Sequence of human sweet receptor (Q8TE23 other isoform, or with tags, fused parts or gaps): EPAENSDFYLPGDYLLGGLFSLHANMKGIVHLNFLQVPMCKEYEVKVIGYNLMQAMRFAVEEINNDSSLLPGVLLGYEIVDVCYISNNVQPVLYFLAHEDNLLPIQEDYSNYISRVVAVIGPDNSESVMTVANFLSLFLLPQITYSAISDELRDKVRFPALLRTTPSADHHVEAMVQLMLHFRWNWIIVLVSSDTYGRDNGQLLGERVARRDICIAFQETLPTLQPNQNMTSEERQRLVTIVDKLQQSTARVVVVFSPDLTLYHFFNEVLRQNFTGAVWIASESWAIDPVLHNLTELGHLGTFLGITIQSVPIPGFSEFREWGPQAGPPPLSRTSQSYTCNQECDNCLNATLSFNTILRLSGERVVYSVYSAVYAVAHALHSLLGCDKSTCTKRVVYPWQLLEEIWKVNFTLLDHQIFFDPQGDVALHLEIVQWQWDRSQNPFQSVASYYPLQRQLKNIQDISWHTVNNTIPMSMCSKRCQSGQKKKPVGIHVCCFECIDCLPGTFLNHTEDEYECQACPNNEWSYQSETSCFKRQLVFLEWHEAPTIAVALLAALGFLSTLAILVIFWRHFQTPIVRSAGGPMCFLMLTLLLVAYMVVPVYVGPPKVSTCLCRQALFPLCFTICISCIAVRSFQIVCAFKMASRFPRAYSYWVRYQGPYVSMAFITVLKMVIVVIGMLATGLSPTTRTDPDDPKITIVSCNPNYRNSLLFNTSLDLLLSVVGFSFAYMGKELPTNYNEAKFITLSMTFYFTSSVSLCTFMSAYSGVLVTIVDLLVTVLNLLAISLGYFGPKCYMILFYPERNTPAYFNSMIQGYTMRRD
Sequence of human sweet receptor (Q7RTX0 21-852 C757R): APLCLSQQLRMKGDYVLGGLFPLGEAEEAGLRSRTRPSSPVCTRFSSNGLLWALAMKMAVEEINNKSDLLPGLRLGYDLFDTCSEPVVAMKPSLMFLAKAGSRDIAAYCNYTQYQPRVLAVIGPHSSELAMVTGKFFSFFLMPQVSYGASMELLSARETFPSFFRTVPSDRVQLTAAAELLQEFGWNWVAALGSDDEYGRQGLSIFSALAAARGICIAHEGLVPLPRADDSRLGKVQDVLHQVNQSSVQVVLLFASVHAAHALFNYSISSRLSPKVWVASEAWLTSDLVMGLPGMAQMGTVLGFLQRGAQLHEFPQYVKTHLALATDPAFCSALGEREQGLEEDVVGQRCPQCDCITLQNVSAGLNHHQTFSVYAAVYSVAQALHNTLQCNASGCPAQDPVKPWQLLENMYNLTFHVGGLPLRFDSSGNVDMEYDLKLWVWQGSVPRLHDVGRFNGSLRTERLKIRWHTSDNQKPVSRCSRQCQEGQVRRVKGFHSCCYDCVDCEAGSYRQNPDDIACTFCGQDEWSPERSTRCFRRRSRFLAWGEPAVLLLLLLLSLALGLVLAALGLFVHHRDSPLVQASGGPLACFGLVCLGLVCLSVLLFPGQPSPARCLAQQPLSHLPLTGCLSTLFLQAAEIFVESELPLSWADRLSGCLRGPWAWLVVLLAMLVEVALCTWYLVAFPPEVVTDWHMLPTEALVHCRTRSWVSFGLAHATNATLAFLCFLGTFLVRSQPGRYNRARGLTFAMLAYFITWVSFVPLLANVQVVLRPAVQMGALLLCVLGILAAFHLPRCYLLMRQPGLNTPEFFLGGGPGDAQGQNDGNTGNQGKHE
Description: Values represent the mean±SE for four independent responses.

T1R1/T1R3 [1] = target: T1, T1R1/T1R3 (Homo sapiens (Human), UniProt Q7RTX0+Q7RTX1); test: FLIPR dose responses of human T1R1/T1R3 stable cell line with modulators; type: cell-based; details: for effect of control sweeteners on activities of T1R1/T1R3 umami taste receptor: [Steviocide]=0.5 mM, [Saccharin]=1 mM, glutamate and glutamate/IMP dose responses
T1 sequence (Q7RTX1 21-841): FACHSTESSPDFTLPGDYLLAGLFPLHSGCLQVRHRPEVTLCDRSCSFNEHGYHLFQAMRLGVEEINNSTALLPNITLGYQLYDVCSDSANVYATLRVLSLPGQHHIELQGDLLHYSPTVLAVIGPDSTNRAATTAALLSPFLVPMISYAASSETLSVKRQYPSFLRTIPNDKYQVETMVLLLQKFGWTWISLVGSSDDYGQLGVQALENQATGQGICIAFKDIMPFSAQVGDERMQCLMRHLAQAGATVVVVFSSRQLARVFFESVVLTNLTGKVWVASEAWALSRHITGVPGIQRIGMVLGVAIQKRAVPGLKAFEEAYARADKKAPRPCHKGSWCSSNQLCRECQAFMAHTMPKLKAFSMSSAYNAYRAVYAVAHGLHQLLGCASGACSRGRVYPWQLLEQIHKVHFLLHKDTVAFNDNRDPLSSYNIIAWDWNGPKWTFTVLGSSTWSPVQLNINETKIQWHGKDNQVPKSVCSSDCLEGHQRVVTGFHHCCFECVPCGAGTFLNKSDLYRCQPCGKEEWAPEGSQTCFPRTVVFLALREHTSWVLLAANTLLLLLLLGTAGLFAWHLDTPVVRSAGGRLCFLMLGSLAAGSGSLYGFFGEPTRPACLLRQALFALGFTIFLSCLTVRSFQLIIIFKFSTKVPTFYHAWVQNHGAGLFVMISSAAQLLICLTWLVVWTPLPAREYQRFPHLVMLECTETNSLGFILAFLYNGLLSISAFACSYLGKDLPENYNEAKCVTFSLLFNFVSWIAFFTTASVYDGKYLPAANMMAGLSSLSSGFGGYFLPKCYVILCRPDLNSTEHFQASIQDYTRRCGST
T1 sequence (Q7RTX0 21-852 C757R): as the sequence (Q7RTX0 21-852 C757R) above
Description: (§1) “Detection thresholds” are defined as the lower limit of detectable tastants. The detection threshold values were averaged over four trials for three subjects. […] The activities in B, C, E and F represent the mean±SE of fold increases in fluorescence intensities for four recorded wells. The dose-responses in B, C, E and F were reproduced at least 6 times independently.
Human cell lines that stably co-express human T1R2/T1R3 or human T1R1/T1R3 were generated by transfecting linearized PEAK10-derived (Edge Biosystems) vectors and pcDNA 3.1/ZEO-derived (Invitrogen) vectors respectively containing hT1R1 or hT1R2 expression construct (plasmid SAV2485 for T1R1, SAV2486 for T1R2) and hT1R3 (plasmid SXV550 for T1R3) into a Gα15 expressing cell line. […] Following SAV2485/SXV550 and SAV2486/SXV550 transfections, puromycin-resistant and zeocin-resistant colonies were selected, expanded, and tested by calcium imaging for responses to sweet or umami taste stimuli. Cells were selected in 0.0005 mg/ml puromycin (CALBIOCHEM) and 0.1 mg/ml zeocin (Invitrogen) at 37° C. in low-glucose DMEM supplemented with GlutaMAX, 10% dialyzed FBS, and 0.003 mg/ml blasticidin. Resistant colonies were expanded, and their responses to sweet taste stimuli evaluated by Fluorescence microscopy. For automated fluorimetric imaging on VIPR-II instrumentation (Aurora Biosciences), T1R2/T1R3 stable cells were first seeded onto 96-well plates (approximately 100,000 cells per well).

mT2R5 = mT2R5 (Mus musculus (Mouse), UniProt Q9JKT4); test: Mouse bitter receptor mT2R5 transiently expressed in HEK cells; type: cell-based
Sequence of mT2R5 (Q9JKT4 whole entry): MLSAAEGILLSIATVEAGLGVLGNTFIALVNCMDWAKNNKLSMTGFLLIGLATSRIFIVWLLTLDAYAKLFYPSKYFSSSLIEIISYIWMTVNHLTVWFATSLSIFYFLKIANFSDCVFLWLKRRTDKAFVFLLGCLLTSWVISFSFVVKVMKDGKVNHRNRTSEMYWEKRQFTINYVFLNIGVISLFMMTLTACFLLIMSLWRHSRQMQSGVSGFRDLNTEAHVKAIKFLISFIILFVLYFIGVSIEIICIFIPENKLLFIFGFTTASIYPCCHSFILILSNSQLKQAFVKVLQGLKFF
Description: As was the case for the T1R2/T1R3 receptor, lactisole inhibition of the T1R1/T1R3 response to umami taste stimuli was reversible following washout and restimulation.

[2] = Human taste detection thresholds in the presence of lactisole; type: in vivo; details: millimolar (1 and 2 mM) lactisole, human subjects
Description: as §1
The present inventors then evaluated the effect of lactisole on human umami taste.

[3] = tested on: endogenous muscarinic acetylcholine receptor; test: Endogenous muscarinic acetylcholine receptor response in HEK cells; type: cell-based; details: carbachol
Description: as §1

T1R1/T1R3 [4] = target: T1, T1R1/T1R3; test: Umami FLIPR assay, HEK-Gα15 clone I-17 inducibly expressing T1R1/T1R3; type: cell-based; details: for EC50: Table 1 Umami Amides
Method: A dose-dependent response curve was determined for a compound, and the compound concentration corresponding to 50% of the maximal response was derived from the curve, in one example.
Regarding umami tastants and enhancers, scores of their activities can be given as percentage of the maximum MSG intensity (%). In compound dose response, an EC50 can be calculated to reflect the potency of the compound as umami agonist.
(§2) HEK-Gα15 cells were engineered to inducibly express T1R1/T1R3 using the GeneSwitch system (Invitrogen). pGene-derived zeocin-resistant expression vectors for human T1R1 and T1R3 (plasmid SXV603 for T1R1 and SXV611 for T1R3) and a puromycin-resistant pSwitch-derived vector that carries the GeneSwitch protein (plasmid SXV628) were linearized and cotransfected into the HEK-Gα15 cell line. Zeocin-resistant and puromycin-resistant colonies were selected, expanded, induced with variable amounts of mifepristone, and tested by calcium imaging for responses to umami taste stimuli. […] After replacement with 50 μl PBS, stimulation was performed at room temperature by the addition of 50 μl PBS supplemented with different stimuli. The maximal fluorescence from four independent determinations were averaged, corrected for background fluorescence measured prior to compound addition, and normalized to the response to 0.002 mM ionomycin (CALBIOCHEM).

T1R1/T1R3 [5] = target: T1, T1R1/T1R3; test: Umami enhancement assay: MSG dose response with and without compound; type: cell-based; details: Table 1; compound @ 1 uM
Method: In enhancement assay experiments, a MSG dose response was run and a second MSG dose response was run with a certain amount of candidate compound at every MSG concentrations at the same time. Then, the EC50 ratio is calculated based on the following definitions: EC50 Ratio=EC50(MSG)/EC50(MSG+[Compound])
wherein “[compound]” refers to the concentration of compound used to elicit (or enhance or potentiate) the MSG dose response. Those concentrations can vary from a pM to an mM, more preferred, from a low nM to μM.
as §2

hT1R2/hT1R3 = hT1R2/hT1R3 (Homo sapiens (Human), UniProt Q7RTX0+Q8TE23); test: Sweet FLIPR assay, hT1R2/hT1R3-HEK293-Gα15 S-9 cells; type: cell-based; details: Table 5 Sweet Enhancer Amides
Sequence of hT1R2/hT1R3 (Q8TE23 other isoform, or with tags, fused parts or gaps): as the sequence (Q8TE23 other isoform, or with tags, fused parts or gaps) above
Sequence of hT1R2/hT1R3 (Q7RTX0 21-852 C757R): as the sequence (Q7RTX0 21-852 C757R) above
Method: Compounds were initially selected based on their activity on the hT1R2/hT1R3-HEK293-Gα15 cell line (Li, et al. vide supra). Activity was determined using an automated fluorometric imaging assay on a FLIPR instrument (Fluorometric Intensity Plate Reader, Molecular Devices, Sunnyvale, Calif.) (designated FLIPR assay). […] S-9 cells were grown for 24 hours at 37° C. S-9 cells were then loaded with the calcium dye Fluo-3AM (Molecular Probes, Eugene, Oreg.), 4 μM in a phosphate buffered saline (D-PBS) (Invitrogen, Carlsbad, Calif.), for 1 hour at room temperature. After replacement with 25 μl D-PBS, stimulation was performed in the FLIPR instrument and at room temperature by the addition of 25 μl D-PBS supplemented with different stimuli at concentrations corresponding to twice the desired final level.
For dose-responses analysis, stimuli were presented in duplicates at 10 different concentrations ranging from 60 nM to 30 μM. Activities were normalized to the response obtained with 400 mM D-fructose, a concentration that elicits maximum receptor response. Ec50s were determined using a non-linear regression algorithm (using Senomyx, Inc. software), where the Hill slope, bottom asymptotes and top asymptotes were allow to vary.

HEK293-Gα15 cells = test: FLIPR assay on HEK293-Gα15 cells not expressing the human sweet receptor; type: cell-based
Description: In order to determine the dependency of hT1R2/hT1R3 for the cell response to different stimuli, selected compounds were subjected to a similar analysis on HEK293-Gα15 cells (not expressing the human sweet receptor).

T1R1/T1R3 [6] = target: T1, T1R1/T1R3; test: Calcium imaging of HEK-Gα15 cells transiently transfected with human T1R1/T1R3; type: cell-based

## OC[C@H]1O[C@@](CO)(O[C@H]2O[C@H](CO)[C@@H](O)[C@H](O)[C@H]2O)[C@@H](O)[C@@H]1O [sucrose]
Human sweet receptor; 0 μM lactisole
  EC50: 19.4 ± 0.9 mM
Human sweet receptor; 10 μM lactisole
  EC50: 24.7 ± 1 mM
Human sweet receptor; 20 μM lactisole
  EC50: 31.3 ± 0.3 mM
T1R1/T1R3 [1]
  effect of other sweeteners on human T1R1/T1R3 activities: no effect

## O=S(=O)(O)NC1CCCCC1 [cyclamate]
T1R1/T1R3 [1]; alone
  effect of compound alone on T1R1/T1R3: no effect
T1R1/T1R3 [1]; threshold level of L-glutamate (4 mM)
  effect on T1R1/T1R3 activity in the presence of L-glutamate: enhanced the activity of the receptor

## COc1ccc(OC(C)C(=O)O)cc1 (stereo not drawn) [lactisole, Lactisole]
mT2R5
  effect on mouse bitter receptor mT2R5: no effect
[2]
  detection thresholds for sweet, umami and salt taste stimuli: dramatically increased detection thresholds for sweet and umami but not salt taste stimuli
[3]
  effect on endogenous muscarinic acetylcholine receptor response: not inhibited; also recorded: no effect

## CCC[C@@H](NC(=O)c1ccc(OC)c(Cl)c1)C(=O)OC [Compound A67]
T1R1/T1R3 [4]
  EC50: 290 nM
T1R1/T1R3 [5]
  Ec50 ratio (vs. MSG): 10.75

## Cc1oncc1C(=O)N[C@@H]1CCCc2ccccc21 [Compound E26, (R)-5-methyl-N-(1,2,3,4-tetrahydronaphthalen-1-yl)isoxazole-4-carboxamide]
hT1R2/hT1R3
  EC50: 8.09 µM

## C=C1C[C@@]23CC[C@H]4[C@@](C)(CCC[C@@]4(C)C(=O)O[C@@H]4O[C@H](CO)[C@@H](O)[C@H](O)[C@H]4O)[C@@H]2CC[C@]1(O[C@@H]1O[C@H](CO)[C@@H](O)[C@H](O)[C@H]1O[C@@H]1O[C@H](CO)[C@@H](O)[C@H](O)[C@H]1O)C3 [Steviocide, stevioside]
T1R1/T1R3 [1]
  effect of control sweeteners on activities of T1R1/T1R3 umami taste receptor: do not affect

## O=C(CO)[C@@H](O)[C@H](O)[C@H](O)CO [D-Fructose, D-fructose]
HEK293-Gα15 cells
  functional response in FLIPR assay: do not show any functional response

## COc1cccc2c1CCCC2NC(=O)c1cc(O)ccc1O (stereo not drawn) [Compound E18, 2,5-dihydroxy-N-(5-methoxy-1,2,3,4-tetrahydronaphthalen-1-yl)benzamide]
hT1R2/hT1R3
  EC50: 3.38 µM

## N[C@@H](CCC(=O)O)C(=O)O [glutamate]
T1R1/T1R3 [6]; glutamate alone
  maximal percentage of responding cells: approximately 5%
T1R1/T1R3 [6]; glutamate plus 0.2 mM IMP
  maximal percentage of responding cells: approximately 10%

## N[C@H](Cc1c[nH]c2ccccc12)C(=O)O [D-Trp, D-tryptophan]
Human sweet receptor; 0 μM lactisole
  EC50: 0.37 ± 0.02 mM
Human sweet receptor; 10 μM lactisole
  EC50: 0.6 mM
Human sweet receptor; 20 μM lactisole
  EC50: 0.94 ± 0.08 mM

## N[C@@H](CCC(=O)O)C(=O)O [L-glutamate, reference compound]
T1R1/T1R3 [4]; clone I-17, with and without IMP
  activation of T1R1/T1R3 receptor by L-amino acids: significantly activated
T1R1/T1R3 [4]; induced cells (inducible T1R1/T1R3 expression)
  percentage of cells that responded: approximately 80%
T1R1/T1R3 [6]; transiently transfected cells
  percentage of cells that responded: approximately 10%

## Cc1cc(C)c(C(=O)NC2CCCCCC2)c(C)c1 [Compound E49, N-cycloheptyl-2,4,6-trimethylbenzamide]
hT1R2/hT1R3
  EC50: 1.39 µM

## N[C@H](Cc1c[nH]c2ccccc12)C(=O)O [D-tryptophan]
T1R1/T1R3 [1]
  effect of other sweeteners on human T1R1/T1R3 activities: no effect

## COC(=O)[C@H](Cc1ccccc1)NC(=O)[C@@H](N)CC(=O)O [aspartame] (H-Asp-Phe-OMe)
T1R1/T1R3 [1]
  effect of other sweeteners on human T1R1/T1R3 activities: no effect

## O=C1NS(=O)(=O)c2ccccc21 [saccharin]
T1R1/T1R3 [1]
  effect of other sweeteners on human T1R1/T1R3 activities: no effect
  effect of control sweeteners on activities of T1R1/T1R3 umami taste receptor: do not affect

## CCCC(CCC)NC(=O)c1cc2cc(C)ccc2o1 [Compound A10]
T1R1/T1R3 [4]
  EC50: 910 nM
T1R1/T1R3 [5]
  Ec50 ratio (vs. MSG): 4.51
